Measured values from publication PMC9028219 (Frontiers in Nutrition, 2022).

Tested on: Sarcoma-180 (S-180) tumor
Details: 20 mg/kg bw i.p.
Method: The S-180 cells were collected from Swiss albino mice harboring 8–10 days old cells from the peritoneal cavity. On day 0, the S-180 cells (1 × 10^7 cells/ml) were injected intra-peritoneal in non-inbred female Swiss albino mice (22–25 g, 8–10 weeks old) selected for the experiment. The next day (Day 1), the animals were randomized and divided into three treatment groups, one positive control group and one vehicle control group containing 5 animals in each group. […] The fourth group was given 5-fluorouracil; positive control at a dose of 20 mg/kg bw i.p. from day 1–9, and the fifth group (control) was administered normal saline (0.2 ml i.p.) for 9 days. On day 12, the animals were sacrificed, and the fluid was collected from each mouse's peritoneal cavity to evaluate tumor growth ([43]). The tumor growth inhibition was calculated using the following formula.
Tumor Growth Inhibition(%)=(Number of tumor cells in control group-Number of tumor cells in the test group)/Number of tumor cells in the control group×100

[1] = days 1-9, evaluated day 12, n = 5

O=c1[nH]cc(F)c(=O)[nH]1 [5 FU, 5-fluorouracil, reference compound]
Tumor growth inhibition (days 1-9, evaluated day 12): 93.75% | Tumor cell count Mean ± S.E [1]: 5 ± 0.28^*** 1 × 10^7 | Tumor volume Mean ± S.E [1]: 0.16 ± 0.01 mL | Tumor weight Mean ± S.E [1]: 0.16 ± 0.01 g
